Test results as given in US5264207A, “Products for cutaneous applications with cosmetic and/or therapeutic effects” (EXSYMOL S.A.M., priority 1989, dated 1993).

What was measured:
[1] = time of release/action of active substances after application to the skin; format: in vivo; conditions: for time of release on application to the skin: Example 4, product as it is or mixed with cosmetic cream, gel or lotion
Description: The microspheres are constituted by a copolymer of 2 moles of styrene with 2 moles of butadiene and 1 mole of 2-aminoethanol methacrylate. They are prepared in the known manner, in aqueous dispersion with Na dodecylsulfate as a surfactant and K persulfate as a catalyst. After polymerization, the microspheres are neutralized, purified by aqueous dialysis and passed over an ion-exchange resin.
0.09 g of pyrrolidone carboxylic acid, which binds to the methacrylate --NH2 group forming a covalent amide bond, is added to 100 ml of suspension of 4 g of these microspheres numbering […] (average size 96 nm). Another purification is then carried out and 6.1 g of dimethyl silanol hyaluronate, the same as in example 1, are added to the suspension and adsorbed.
The resulting suspension of 106.1 g thus contains 0.09 g of pyrrolidone carboxylic acid and 0.28 g of the Si contained in dimethyl silanol hyaluronate. Application to the skin of the product as it is, or mixed with a cosmetic cream, gel or lotion leads to release of the pyrrolidone compound in 2 to 5 hours and release of the hyaluronate compound in 10 to 17 hours. A synergetic effect of the two active substances is also observed for 2 to 5 hours, followed by a longer period of hyaluronate action only.
The microspheres prepared in the known manner, described at the beginning of example 4, consist of a copolymer of 4 moles of styrene with 1 mole of acrylic acid.
(A)-100 g of an aqueous suspension of 5 g of microspheres are reacted with 0.126 g of theophylline, which binds to the acryl groups.
(B)-The microspheres are then given functional groups using diamine hexamethylene, after which they are treated with a 40 g/kg elastin aqueous solution. 0.3 g of elastin polypeptides thus bind to the copolymer.
(C)-The product obtained is purified and made to adsorb Ruscus Aculeatus glucosides, from an aqueous extract of this plant (Ruscus 1=33).

[2] = Description: 100 g of an aqueous suspension of 5 g of nanospheres having a diameter of about 70 to 130 nm (average 100 nm) are prepared by the copolymerization of an emulsion of 4 moles of styrene and 1 mole of acrylic acid, according to the technique described in example 2. 0.126 g of theophylline, which binds to the acrylic acid groups of the copolymer by an electronic-type chemical interaction, is added to these 100 g.
A liquid product (a-b) composed of two sets of copolymer/active substance nanospheres is thus obtained:
The liquid (a-b) is submitted to tests on an experimental model, reproducing diffusion phenomena in the skin.
The proportions of each of the active substances which may have been in contact with the skin in 3 hours is thus determined.
Given below are the percentages of the initial amount of each of these active substances which, according to the tests mentioned hereinabove, may have been diffused into the skin from the liquid studied:
They thus contained no --COOH groups likely to react with the --NH groups of theophylline. […]
As above, the amount of active principal available to the skin in 3 hours was determined. […]
The proportion of theophylline which is available to the skin in 3 hours and in 5 hours is then determined from 100 g of an aqueous suspension of 5 g of nanosphere charged as described above. […]

[3] = adsorption (charging) of active substance onto copolymer microspheres/nanospheres; format: physicochemical; conditions: 60% styrene / 40% methyl methacrylate copolymer, average 95 nm; room temperature, 48 hours

Compound	time of action after application ([1]; in vivo) [h]	amount available to the skin, tempering ratio without : with nanospheres [2] [times]	amount of active principal available to the skin in 3 hours [2] [%]	microspheres are charged with dimethylsilanediol hyaluronate [3] [%]	time of release on application to the skin [1] [h]
Cn1c(=O)c2[nH]cnc2n(C)c1=O [theophylline]	2 to 8	2.5	20	–	–
dimethylsilanediol hyaluronate	–	–	–	30	10 to 17
O=C1CC[C@@H](C(=O)O)N1 [pyrrolidone carboxylic acid]	–	–	–	–	2 to 5
